Results: patent publication US20110124666A1, “3,4-DIHYDROPYRIMIDINE TRPA1 ANTAGONISTS” (Janssen Pharmaceutica NV a corporation, priority 2008, published 2011)

Legend:
hTRPA1 = target: T1, hTRPA1 (Homo sapiens, UniProt O75762); assay: Ca2+ fluorometry TRPA1 antagonism in hTRPA1/TREx-HEK293 cells (FDSS); assay type: cell-based; conditions: 11H-dibenzo[b,e]azepine-10-carboxylic acid methyl ester as TRPA1 agonist (25 nM), hTRPA1-HEK cells, Fluo4-AM
T1 construct: expressed in transfected cells
From the text: The Human TRPA1 gene was cloned into the pT-REx-Dest30 inducible vector and afterwards stably transfected in T-Rex^TM-293 cells (purchased from Invitrogen, Merelbeke, Belgium). This tetracyclin inducible hTRPA1 expression system was used in order to prevent Ca^2+ overload in the cultured cells due to sustained TRPA1 expression. hTRPAl/TREx-HEK293 cells (referred to as hTRPA1 cells in the following text) were maintained under standard sterile cell culture conditions.
Binding of an agonist to the TRPA1 ion-channel activates and opens the ion-channel which causes a robust increase in intracellular Ca^2+ concentration. For detecting and measuring intracellular Ca^2+ concentration, cells were loaded with a Ca^2+-sensitive dye. Changes in fluorescence in the cell, that correspond to changes in Ca^2+ concentration in the cell, can kinetically be monitored with the FDSS instrument (Hamamatsu) and are indicative for agonism towards the TRPA1 ion channel and this can be reduced by TRPA1-receptor antagonists.
The cells were seeded in poly-D-lysine-coated 384-well round bottom polypropylene plates (Costar Corning, Data Packaging, Cambridge Mass., USA) at 12000 cells/well. 50 ng/ml tetracycline was added to induce the hTRPA1 expression 24 h before the experiment.
The cells were loaded with 5 mg/l Fluo4-AM (Molecular Probes, Invitrogen, Merelbeke, Belgium) dissolved in HBSS seeding medium supplemented with 0.7 g/l Probenecid (Sigma) and incubated for 1 h at 37° C. and subsequently at 20° C. for 1 to 2 h. The fluorescence was measured in the FDSS 6000 imaging based plate reader (Hamamutsu Photonics K.K., Hamamutsu City, Japan). The excitation wavelength was 488 nm and the emission wavelength 540 nm. After a control period of 12 seconds the JNJ compounds were added and the Ca^2+ signal was measured within 14 minutes after application. Finally, the control TRPA1 agonist 11H-dibenzo[b,e]azepine-10-carboxylic acid methyl ester [the synthesis of which is hereafter described as compound (D-6)] or BITC (benzylisothiocyanate, FLUKA) was added at a final concentration of 25 nM. […] The emission ratio was calculated by dividing the emission signal (Em540) by the first Em540 signal of the control period to compensate for the background fluorescence. On every 384 well plate 4 series of DMSO control experiments were performed of which 2 with and 2 without control agonist 11H-dibenzo[b,e]azepine-10-carboxylic acid methyl ester or BITC. For intracellular Ca^2+ measurements compound stock solutions (10 or 100 mM) were further diluted in DMSO in order to obtain finally 1% DMSO in the extracellular solution.

T1 sequence (O75762 whole entry): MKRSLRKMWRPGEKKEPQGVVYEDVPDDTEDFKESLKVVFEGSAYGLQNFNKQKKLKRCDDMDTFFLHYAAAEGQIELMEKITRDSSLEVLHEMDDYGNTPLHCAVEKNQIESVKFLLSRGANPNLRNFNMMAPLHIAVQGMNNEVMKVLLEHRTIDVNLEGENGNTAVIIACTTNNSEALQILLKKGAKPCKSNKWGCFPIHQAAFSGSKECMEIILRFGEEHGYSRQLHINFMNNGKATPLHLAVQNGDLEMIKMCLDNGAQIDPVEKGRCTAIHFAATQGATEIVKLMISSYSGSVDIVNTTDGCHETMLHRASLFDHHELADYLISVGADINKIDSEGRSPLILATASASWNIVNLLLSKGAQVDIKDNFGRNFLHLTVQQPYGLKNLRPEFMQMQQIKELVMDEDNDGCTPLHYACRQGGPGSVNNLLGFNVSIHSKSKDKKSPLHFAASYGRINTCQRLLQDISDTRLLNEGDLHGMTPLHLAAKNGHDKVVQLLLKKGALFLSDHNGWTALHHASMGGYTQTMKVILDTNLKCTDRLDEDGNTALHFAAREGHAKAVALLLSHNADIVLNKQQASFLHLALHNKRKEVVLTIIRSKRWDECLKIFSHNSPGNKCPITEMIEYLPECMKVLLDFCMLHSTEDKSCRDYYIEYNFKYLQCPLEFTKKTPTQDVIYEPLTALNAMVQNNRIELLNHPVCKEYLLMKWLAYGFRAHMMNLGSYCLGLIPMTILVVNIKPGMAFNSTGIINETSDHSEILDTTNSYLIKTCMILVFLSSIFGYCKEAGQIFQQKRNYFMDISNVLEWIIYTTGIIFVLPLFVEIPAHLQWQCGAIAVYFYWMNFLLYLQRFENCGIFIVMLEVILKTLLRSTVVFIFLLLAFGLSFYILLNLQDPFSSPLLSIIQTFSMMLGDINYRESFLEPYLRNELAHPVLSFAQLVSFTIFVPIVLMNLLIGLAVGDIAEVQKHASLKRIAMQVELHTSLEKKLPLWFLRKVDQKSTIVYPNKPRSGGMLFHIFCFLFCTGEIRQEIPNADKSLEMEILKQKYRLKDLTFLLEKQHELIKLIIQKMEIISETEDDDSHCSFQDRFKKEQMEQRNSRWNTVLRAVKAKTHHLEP

Molecule `O=C1C2=C(NC(=S)NC2c2cncc(Br)c2)c2ccccc21` (stereo not shown) has a melting point of 294.61 °C.
With `COc1cccc(C2NC(=S)NC3=C2C(=O)c2ccccc23)c1` (stereo not shown) [Co. No. 1] the melting point was 295.22 °C.
With `COc1cccc([C@H]2NC(=S)NC3=C2C(=O)c2ccccc23)c1` [Co. No. 2] the melting point was 252.73 °C.
Work on `COc1cccc([C@@H]2NC(=S)NC3=C2C(=O)c2ccccc23)c1` [Co. No. 3] yielded a melting point of 253.6 °C.
Molecule `COc1cccc(C2NC(=O)N(Cc3ccccc3)C3=C2C(=O)c2ccccc23)c1` (stereo not shown) [Co. No. 4] has a melting point of 188.65 °C.
`COc1cc(OC)cc(C2NC(=S)NC3=C2C(=O)c2ccccc23)c1` (stereo not shown) [Co. No. 5] gave a melting point of 287.08 °C.
For `O=C1C2=C(NC(=S)NC2c2cccc(O)c2)c2ccccc21` (stereo not shown) [Co. No. 6], the melting point was 288.04 °C.
`COc1ccc(F)c(C2NC(=S)NC3=C2C(=O)c2ccccc23)c1` (stereo not shown) [Co. No. 10] gave a melting point of 289.27 °C.
`O=C1C2=C(NC(=S)NC2c2cccc3c2OCO3)c2ccccc21` (stereo not shown) [Co. No. 12] gave a melting point of 289.34 °C.
`O=C1C2=C(NC(=S)NC2c2cccc(OCCO)c2)c2ccccc21` (stereo not shown) [Co. No. 13] gave a melting point of 261.08 °C.
In the case of `O=C1C2=C(NC(=S)NC2c2cccc(CO)c2)c2ccccc21` (stereo not shown) [Co. No. 14], the melting point is reported as 265.63 °C.
For `COc1ccc(OC)c(C2NC(=S)NC3=C2C(=O)c2ccccc23)c1` (stereo not shown) [Co. No. 15], the melting point was 295.33 °C.
`COc1cccc(C2NC(=S)NC3=C2C(=O)c2ccccc23)c1F` (stereo not shown) [Co. No. 16] gave a melting point of 287.05 °C.
In the case of `COCCCOc1cccc([C@H]2NC(=O)NC3=C2C(=O)c2ccccc23)c1` [Co. No. 18], the melting point is reported as 206.47 °C.
With `COCCCOc1cccc([C@@H]2NC(=O)NC3=C2C(=O)c2ccccc23)c1` [Co. No. 19] the melting point was 207.44 °C.
With `COc1ccc(Oc2cccc(C3NC(=S)NC4=C3C(=O)c3ccccc34)c2)cc1` (stereo not shown) [Co. No. 20] the melting point was 269.04 °C.
With `CCN(CC)CCOc1cccc(C2NC(=S)NC3=C2C(=O)c2ccccc23)c1` (stereo not shown) [Co. No. 22] the melting point was 243.58 °C.
With `O=C1C2=C(NC(=S)NC2c2cccc(OCCCOc3ccc(F)cc3)c2)c2ccccc21` (stereo not shown) [Co. No. 23] the melting point was 245.01 °C.
`CN(C)CCCOc1cccc(C2NC(=S)NC3=C2C(=O)c2ccccc23)c1` (stereo not shown) [Co. No. 24] showed a melting point of 237.9 °C.
In the case of `O=C1C2=C(NC(=S)NC2c2cccc(OCCCCO)c2)c2ccccc21` (stereo not shown) [Co. No. 25], the melting point is reported as 224.49 °C.
In the case of `CC(=O)OCCCCOc1cccc(C2NC(=S)NC3=C2C(=O)c2ccccc23)c1` (stereo not shown) [Co. No. 26], the melting point is reported as 199.5 °C.
In the case of `COc1cccc(C2C3=C(NC(=S)N2C)c2ccccc2C3=O)c1` (stereo not shown) [Co. No. 27], the melting point is reported as 286.94 °C.
In the case of `O=C1C2=C(NC(=S)NC2c2cccc(-c3ccc(C(F)(F)F)cc3)c2)c2ccccc21` (stereo not shown) [Co. No. 31], the melting point is reported as 149.46 °C.
Work on `COc1cccc(C2NC(=S)NC3=C2C(=O)c2ccccc23)c1` (stereo not shown) [compound 1] yielded an IC50 (hTRPA1) of about 128 nM.
Work on `COc1cccc([C@H]2NC(=S)NC3=C2C(=O)c2ccccc23)c1` [compound 2] yielded an IC50 (hTRPA1) of about 76 nM.
`COc1cccc([C@@H]2NC(=S)NC3=C2C(=O)c2ccccc23)c1` [compound 3] showed an IC50 (hTRPA1) of over 10000 nM.
Molecule `COc1cccc(C2NC(=O)N(Cc3ccccc3)C3=C2C(=O)c2ccccc23)c1` (stereo not shown) [compound 4] has an IC50 (hTRPA1) of about 6030 nM.
`COc1cc(OC)cc(C2NC(=S)NC3=C2C(=O)c2ccccc23)c1` (stereo not shown) [compound 5] gave an IC50 (hTRPA1) of about 2780 nM.
Molecule `O=C1C2=C(NC(=S)NC2c2cccc(O)c2)c2ccccc21` (stereo not shown) [compound 6] has an IC50 (hTRPA1) of about 636 nM.
`COCCCOc1cccc(C2NC(=S)NC3=C2C(=O)c2ccccc23)c1` (stereo not shown) [compound 7] gave an IC50 (hTRPA1) of 47 nM.
With `O=C1C2=C(NC(=S)NC2c2cccc(F)c2)c2ccccc21` (stereo not shown) [compound 8] the IC50 (hTRPA1) was about 1060 nM.
`COc1cccc(C2NC(=S)NC3=C2C(=O)c2ccccc23)c1OC` (stereo not shown) [compound 9] showed an IC50 (hTRPA1) of over 10000 nM.
Molecule `COc1ccc(F)c(C2NC(=S)NC3=C2C(=O)c2ccccc23)c1` (stereo not shown) [compound 10] has an IC50 (hTRPA1) of about 365 nM.
With `O=C1C2=C(NC(=S)NC2c2cccc(Br)c2)c2ccccc21` (stereo not shown) [compound 11] the IC50 (hTRPA1) was 495 nM.
`O=C1C2=C(NC(=S)NC2c2cccc3c2OCO3)c2ccccc21` (stereo not shown) [compound 12] showed an IC50 (hTRPA1) of about 4410 nM.
With `O=C1C2=C(NC(=S)NC2c2cccc(OCCO)c2)c2ccccc21` (stereo not shown) [compound 13] the IC50 (hTRPA1) was 213 nM.
`O=C1C2=C(NC(=S)NC2c2cccc(CO)c2)c2ccccc21` (stereo not shown) [compound 14] showed an IC50 (hTRPA1) of about 708 nM.
`COc1ccc(OC)c(C2NC(=S)NC3=C2C(=O)c2ccccc23)c1` (stereo not shown) [compound 15] gave an IC50 (hTRPA1) of over 10000 nM.
`COc1cccc(C2NC(=S)NC3=C2C(=O)c2ccccc23)c1F` (stereo not shown) [compound 16] gave an IC50 (hTRPA1) of about 287 nM.
`COCCCOc1cccc([C@H]2NC(=O)NC3=C2C(=O)c2ccccc23)c1` [compound 18] gave an IC50 (hTRPA1) of 1320 nM.
Work on `COCCCOc1cccc([C@@H]2NC(=O)NC3=C2C(=O)c2ccccc23)c1` [compound 19] yielded an IC50 (hTRPA1) of over 10000 nM.
Work on `CCCCOc1cccc(C2NC(=S)NC3=C2C(=O)c2ccccc23)c1` (stereo not shown) [compound 21] yielded an IC50 (hTRPA1) of 314 nM.
Work on `CCN(CC)CCOc1cccc(C2NC(=S)NC3=C2C(=O)c2ccccc23)c1` (stereo not shown) [compound 22] yielded an IC50 (hTRPA1) of 1200 nM.
In the case of `O=C1C2=C(NC(=S)NC2c2cccc(OCCCOc3ccc(F)cc3)c2)c2ccccc21` (stereo not shown) [compound 23], the IC50 (hTRPA1) is reported as 4860 nM.
Molecule `O=C1C2=C(NC(=S)NC2c2cccc(OCCCCO)c2)c2ccccc21` (stereo not shown) [compound 25] has an IC50 (hTRPA1) of about 685 nM.
Work on `CC(=O)OCCCCOc1cccc(C2NC(=S)NC3=C2C(=O)c2ccccc23)c1` (stereo not shown) [compound 26] yielded an IC50 (hTRPA1) of 557 nM.
For `COc1cccc(C2C3=C(NC(=S)N2C)c2ccccc2C3=O)c1` (stereo not shown) [compound 27], the IC50 (hTRPA1) was over 10000 nM.
In the case of `COc1cccc(C2NC(=S)N(C)C3=C2C(=O)c2ccccc23)c1` (stereo not shown) [compound 28], the IC50 (hTRPA1) is reported as about 85 nM.
`COCCCOc1cccc([C@H]2NC(=S)NC3=C2C(=O)c2ccccc23)c1` [compound 29] showed an IC50 (hTRPA1) of about 13 nM.
For `COCCCOc1cccc([C@@H]2NC(=S)NC3=C2C(=O)c2ccccc23)c1` [compound 30], the IC50 (hTRPA1) was over 10000 nM.
With `O=C1C2=C(NC(=S)NC2c2cccc(-c3ccc(C(F)(F)F)cc3)c2)c2ccccc21` (stereo not shown) [compound 31] the IC50 (hTRPA1) was over 10000 nM.
With `O=C1C2=C(NC(=S)NC2c2cncc(Br)c2)c2ccccc21` (stereo not shown) [compound 32] the IC50 (hTRPA1) was 1670 nM.
